These results are taken from patent publication US9974778B2, “Substituted pyridinones as MGAT2 inhibitors” (BRISTOL-MYERS SQUIBB COMPANY, priority 2014, dated 2018).

Each structure is given as a SMILES string.

The IC50 is the concentration at which inhibition is half-maximal.

T1 sequence (Q3SYC2 whole entry): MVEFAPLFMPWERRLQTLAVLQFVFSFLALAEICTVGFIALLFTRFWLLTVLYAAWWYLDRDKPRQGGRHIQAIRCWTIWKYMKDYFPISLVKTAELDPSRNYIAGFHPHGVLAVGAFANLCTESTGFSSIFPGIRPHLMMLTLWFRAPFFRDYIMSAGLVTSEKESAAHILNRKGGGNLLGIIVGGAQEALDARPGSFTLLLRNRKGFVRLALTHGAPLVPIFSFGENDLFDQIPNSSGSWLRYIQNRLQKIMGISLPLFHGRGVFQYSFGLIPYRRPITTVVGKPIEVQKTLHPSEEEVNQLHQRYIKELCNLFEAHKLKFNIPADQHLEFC

The test addresses T1, Human MGAT-2 (Homo sapiens, UniProt Q3SYC2).
T1 construct: made in house; host or cells: Sf9 cells (membrane preparation)
Put plainly: MGAT LCMS Assay. The settings on record: human MGAT2 membranes expressed in Sf9 cells; 100 μM 2-oleoylglycerol, 15 μM oleoyl-coenzyme A; read-out: h-MGAT LCMS IC50. Format: biochemical. An outline of the steps:
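Robotic enzyme reaction shaken 10 min, quenched with ice-cold methanol containing 1 μg/mL 1,2-distearoyl-rac-glycerol internal standard. Diolein product measured by LC/MS (C8 column, 65° C, APCI(+) triple quad). IC50 derived from diolein/internal standard peak area ratio.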
In the case of `CCCCCc1ccc(-c2c(C3CCCC3)[nH]c(=O)c(C(=O)Nc3ccc(OCC)cc3)c2-c2ccc(C)cc2)cc1` [Example 40, 6-Cyclopentyl-N-(4-ethoxyphenyl)-2-oxo-5-(4-pentylphenyl)-4-(p-tolyl)-1,2-dihydropyridine-3-carboxamide], the IC50 was 390 nM. Regarding `CCc1cnc(-c2cc(-c3ccc(OCCCCCC(F)(F)F)cc3F)[nH]c(=O)c2)s1` [Example 166, 4-(5-Ethyl-1,3-thiazol-2-yl)-6-{2-fluoro-4-[(6,6,6-trifluorohexyl)oxy]phenyl}-1,2-dihydropyridin-2-one], the IC50 is 70 nM.

With `CCCCCc1ccc(-c2cc(-c3ccc(C)cc3)c(NC(=O)c3ccccc3)c(=O)[nH]2)cc1` [Example 14, N-(2-Oxo-6-(4-pentylphenyl)-4-(p-tolyl)-1,2-dihydropyridin-3-yl)benzamide], the IC50 came out at 100 nM. Next, `Cc1ccc(-c2cc(-c3ncc(CCCCCCC(F)(F)F)s3)[nH]c(=O)c2-c2nnn[nH]2)cc1` [Example 62, 3-(1H-Tetrazol-5-yl)-4-(p-tolyl)-6-(5-(7,7,7-trifluoroheptyl)thiazol-2-yl)pyridin-2(1H)-one]: 188 nM; `CC1(C)CCC(c2ccc(-c3cc(-c4ccn(CC5CC5)n4)c(-c4nn[nH]n4)c(=O)[nH]3)cc2)CC1` [Example 172, 4-[1-(Cyclopropylmethyl)-1H-pyrazol-3-yl]-6-[4-(4,4-dimethylcyclohexyl)phenyl]-3-(2H-1,2,3,4-tetrazol-5-yl)-1,2-dihydropyridin-2-one]: 26 nM; `Cc1ccc(-c2c(Br)c(-c3ccc(OCCCC(F)(F)F)cc3)[nH]c(=O)c2-c2nn[nH]n2)cc1C` [Example 36, 5-Bromo-4-(3,4-dimethylphenyl)-3-(2H-tetrazol-5-yl)-6-(4-(4,4,4-trifluorobutoxy)phenyl)pyridin-2(1H)-one]: 311 nM. Next, `O=c1[nH]c(-c2ccc(OCCCC(F)(F)F)cc2)cc(-c2ccn(CC3CC3)n2)c1-c1nnn[nH]1` [Example 97]: 153 nM. On to `O=c1[nH]c(-c2ccc(OCCCCCC(F)(F)F)cc2F)cc(-c2ccn(CC3CC3)n2)c1-n1nn[nH]c1=O` [Example 168, 4-[1-(Cyclopropylmethyl)-1H-pyrazol-3-yl]-6-{2-fluoro-4-[(6,6,6-trifluorohexyl)oxy]phenyl}-3-(5-oxo-4,5-dihydro-1H-1,2,3,4-tetrazol-1-yl)-1,2-dihydropyridin-2-one], for which the IC50 worked out at 373 nM.

Regarding `CCOc1cc(OCCCC(F)(F)F)ccc1-c1cc(-c2ccc(C)cc2)c(C(=O)NS(=O)(=O)C2CC2)c(=O)[nH]1` [Example 126, N-(Cyclopropylsulfonyl)-6-(2-ethoxy-4-(4,4,4-trifluorobutoxy)phenyl)-2-oxo-4-(p-tolyl)-1,2-dihydropyridine-3-carboxamide], the IC50 is 43 nM. In the case of `CS(=O)(=O)NC(=O)c1c(-c2ccn(CC3CC3)n2)c(F)c(-c2ccc(OCCCC(F)(F)F)cc2)[nH]c1=O` [Example 109, 4-(1-(Cyclopropylmethyl)-1H-pyrazol-3-yl)-5-fluoro-N-(methylsulfonyl)-2-oxo-6-(4-(4,4,4-trifluorobutoxy)phenyl)-1,2-dihydropyridine-3-carboxamide], the IC50 is 130 nM. For `C/C=C/c1c(-c2ccc(CCCCC)cc2)[nH]c(=O)c(C(=O)Nc2ccc(OCC)cc2)c1-c1ccc(C)cc1` [Example 52], the IC50 was determined as 3 nM. Turning to `O=C(Nc1ccc(OC(F)(F)F)cc1)c1c(-c2ccc(Cl)s2)cc(C2CCCCC2)[nH]c1=O` [Example 85, 4-(5-Chlorothiophen-2-yl)-6-cyclohexyl-2-oxo-N-(4-(trifluoromethoxy)phenyl)-1,2-dihydropyridine-3-carboxamide], the half-inhibitory concentration (IC50) came out at 7 nM. As for `CCOc1ccc(NC(=O)c2c(-c3ccc(C)cc3)cc(C3(F)CCCCC3)[nH]c2=O)cc1` [Example 41, N-(4-Ethoxyphenyl)-6-(1-fluorocyclohexyl)-2-oxo-4-(p-tolyl)-1,2-dihydropyridine-3-carboxamide], the half-maximal inhibitory concentration (IC50) was 36 nM. As for `CCc1ccc(-c2cc(-c3ccc(OCCCCCC(F)(F)F)cc3)[nH]c(=O)c2C(=O)NS(C)(=O)=O)s1` [Example 101, 4-(5-Ethylthiophen-2-yl)-N-(methylsulfonyl)-2-oxo-6-(4-((6,6,6-trifluorohexyl)oxy)phenyl)-1,2-dihydropyridine-3-carboxamide], the half-maximal inhibitory concentration (IC50) amounted to 7 nM. In the case of `CCC/C=C/c1ccc(-c2cc(-c3ccc(N(C)C)cc3)c(-c3nn[nH]n3)c(=O)[nH]2)cc1` [Example 80, (E)-4-(4-(Dimethylamino)phenyl)-6-(4-(pent-1-en-1-yl)phenyl)-3-(2H-tetrazol-5-yl)pyridin-2(1H)-one], the IC50 was found to be 168 nM. For the molecule `Cc1ccc(-c2cc(-c3ccc(Cc4ccccc4)cc3)[nH]c(=O)c2-c2nn[nH]n2)cc1` [Example 81, 6-(4-Benzylphenyl)-3-(2H-tetrazol-5-yl)-4-(p-tolyl)pyridin-2(1H)-one], the 50% inhibitory concentration (IC50) turned out to be 256 nM.

On to `CCCCCc1ccc(-c2cc(-c3ccc(C)cc3)c(C(=O)Nc3ccc(OCC)cc3)c(=O)[nH]2)cc1` [Example 27, N-(4-Ethoxyphenyl)-2-oxo-6-(4-pentylphenyl)-4-(p-tolyl)-1,2-dihydropyridine-3-carboxamide], for which the IC50 was 86 nM.

`CS(=O)(=O)NC(=O)c1c(-c2ncc(C3CC3)s2)cc(-c2ccc(OCCCC(F)(F)F)cc2F)[nH]c1=O` [Example 141, 4-(5-Cyclopropylthiazol-2-yl)-6-(2-fluoro-4-(4,4,4-trifluorobutoxy)phenyl)-N-(methylsulfonyl)-2-oxo-1,2-dihydropyridine-3-carboxamide]: the concentration for half-maximal inhibition (IC50) is 7 nM. For `CCc1ccc(-c2cc(-c3ccc(OCCCCCC(F)(F)F)cc3F)[nH]c(=O)c2-n2nn[nH]c2=O)s1` [Example 157, 4-(5-Ethylthiophen-2-yl)-6-{2-fluoro-4-[(6,6,6-trifluorohexyl)oxy]phenyl}-3-(5-oxo-4,5-dihydro-1H-1,2,3,4-tetrazol-1-yl)-1,2-dihydropyridin-2-one], the IC50 was 46 nM. Regarding `O=c1[nH]c(-c2ccc(OCCCC(F)(F)F)cc2)cc(-c2ccn(C3CC3)n2)c1-c1nn[nH]n1` [Example 76, 4-(1-Cyclopropyl-1H-pyrazol-3-yl)-3-(2H-tetrazol-5-yl)-6-(4-(4,4,4-trifluorobutoxy)phenyl)pyridin-2(1H)-one], the IC50 came to 87 nM. Consider `CCc1cnc(-c2cc(-c3ccc(OCCCC(F)(F)F)cc3F)[nH]c(=O)c2-c2nnn[nH]2)s1` [Example 133, 4-(5-Ethylthiazol-2-yl)-6-(2-fluoro-4-(4,4,4-trifluorobutoxy)phenyl)-3-(1H-tetrazol-5-yl)pyridin-2(1H)-one], for which the half-inhibitory concentration (IC50) amounted to 2 nM. `CC(C)n1ccc(-c2cc(-c3ccc(CCCCC(F)(F)F)cc3)[nH]c(=O)c2-c2nn[nH]n2)n1` [Example 74, 4-(1-Isopropyl-1H-pyrazol-3-yl)-3-(2H-tetrazol-5-yl)-6-(4-(5.5,5-trifluoropentyl)phenyl)pyridin-2(1H)-one]: the IC50 is 255 nM.

As to `COc1ccc(NC(=O)c2c(-c3ccc(C)cc3)c(F)c(-c3ccc(OCCCC(F)(F)F)cc3)[nH]c2=O)cc1` [Example 3, 5-Fluoro-N-(4-methoxyphenyl)-2-oxo-4-(p-tolyl)-6-(4-(4,4,4-trifluorobutoxy)phenyl)-1,2-dihydropyridine-3-carboxamide], the IC50 came out at 19 nM. As to `COc1ccc(NC(=O)c2c(-c3ccc(C)cc3)cc(-c3ccc(OCCCC(F)(F)F)cc3)[nH]c2=O)cc1` [Example 2, N-(4-Methoxyphenyl)-2-oxo-4-(p-tolyl)-6-(4-(4,4,4-trifluorobutoxy)phenyl)-1,2-dihydropyridine-3-carboxamide], the half-inhibitory concentration (IC50) was 30 nM. With `Cc1ccc(-c2cc(-c3ccc(OCCCC(F)(F)F)cc3C(F)(F)F)[nH]c(=O)c2C(=O)Nc2ccc(OC(F)(F)F)cc2)cc1` [Example 111, 2-Oxo-4-(p-tolyl)-6-(4-(4,4,4-trifluorobutoxy)-2-(trifluoromethyl)phenyl)-N-(4-(trifluorormethoxy)phenyl)-1,2-dihydropyridine-3-carboxamide], the IC50 was 2 nM. In the case of `O=C(NS(=O)(=O)C1CC1)c1c(-c2ccn(C3CCC3)n2)cc(-c2ccc(OCCCC(F)(F)F)cc2F)[nH]c1=O` [Example 77, 4-(1-Cyclobutyl-1H-pyrazol-3-yl)-N-(cyclopropylsulfonyl)-6-(2-fluoro-4-(4,4,4-trifluorobutoxy)phenyl)-2-oxo-1,2-dihydropyridine-3-carboxamide], the IC50 came to 143 nM. In the case of `CCOc1ccc(NC(=O)c2c(-c3cnc(N(C)C)s3)cc(C3CCCCC3)[nH]c2=O)cc1` [Example 8, 6-Cyclohexyl-4-(2-(dimethylamino)thiazol-5-yl)-N-(4-ethoxyphenyl)-2-oxo-1,2-dihydropyridine-3-carboxamide], the concentration for half-maximal inhibition (IC50) came out at 50 nM. With `CCOc1ccc(NC(=O)c2c(-c3ccc(C(C)(C)C)cc3)cc(-c3ccc(OCCCC(F)(F)F)cc3)[nH]c2=O)cc1` [Example 45, 4-(4-(tert-Butyl)phenyl)-N-(4-ethoxyphenyl)-2-oxo-6-(4-(4,4,4-trifluorobutoxy)phenyl)-1,2-dihydropyridine-3-carboxamide], the half-inhibitory concentration (IC50) amounted to 9 nM.

As for `O=c1[nH]c(-c2ccc(OCCCCCC(F)(F)F)cc2F)cc(-c2ccc(C3CC3)cc2)c1-c1nnn[nH]1` [Example 123, 4-(4-Cyclopropylphenyl)-6-(2-fluoro-4-((6,6,6-trifluorohexyl)oxy)phenyl)-3-(1H-tetrazol-5-yl)pyridin-2(1H)-one], the IC50 worked out at 11 nM. Next, `O=c1[nH]c(-c2ccc(OCCCCCC(F)(F)F)cc2C(F)(F)F)cc(-c2ccn(CC3CC3)n2)c1-c1nn[nH]n1` [Example 155, 4-[1-(Cyclopropylmethyl)-1H-pyrazol-3-yl]-3-(2H-1,2,3,4-tetrazol-5-yl)-6-{4-[(6,6,6-trifluorohexyl)oxy]-2-(trifluoromethyl)phenyl}-1,2-dihydropyridin-2-one]: 3 nM.
